According to patent publication US4629723A, “Potent thymopentin analogs” (Ortho Pharmaceutical Corporation, priority 1984, dated 1986):
Non-standard residues stand in square brackets, D forms with d. Residues, ends and D or L forms follow the SMILES beside them. No end group written: not given here. Aib = CC(C)(N)C(=O)O

Experiments:
[1] = tested on: isolated thymopoietin cell surface receptor protein from CEM cells; conditions: for Displacement of 125I-TP, in words: comparison peptides, competition experiments; for Displacement of 125I-TP relative to that caused by thymopoietin self-displacement: at equivalent concentrations, 2.3×10^-10 M 125I-TP, 4 μg receptor protein, with TP 37-45 nonapeptide, 12 h
intact CEM cell = assay: Cyclic-GMP assay; format: cell-based, human; conditions: for Result on the cyclic-GMP assay in words: in comparison with thymopentin; for Concentration of c-GMP Produced: CEM cells, 4-5 min, 37° C.
Text: This biological activity is evidenced by an assay measuring induction of cyclic-GMP production in a human T-cell line in comparison with thymopoietin. The induction of c-GMP production by a test peptide in this assay indicates the ability of the test peptide to bind to the thymopoietin receptor site on the cell and induce thymopoietin-like biological activity. […] Because of the expense of preparing peptides and the rapid degradation of peptides often observed in living systems, peptides such as those herein which have increased potency are greatly prized.
This assay measures the ability of the test peptide to bind to the cell membrane receptor of the intact CEM cell and selectively stimulate production of cyclic-GMP, as does thymopoietin itself.
The CEM cell line was obtained from the American Type Culture Collection and was cultured in RPMI-1640 medium supplemented with 10% heat-inactivated fetal bovine serum, 10% heat-inactivated horse serum, 2 mM L-glutamine, and 50 µg/ml gentamycin at 37° C. in a humid atmosphere containing 5 percent CO2, to a final density of 3-4×10^6 cells/ml. At this concentration, the cells were in the early stationary phase of the growth curve and were judged greater than 90% viable by trypan blue exclusion. The cells were grown for four days and harvested. After harvesting, the cells were washed three times in PBS and were resuspended in RPMI-1640 medium at a concentration of 3.12×10^7 cells/ml. After the cells had been allowed to equilibrate at 37° C. for 30 min, various concentrations of the test peptides were added in a volume of 25 μl of medium to 1 ml of cells, the initial concentration of test compound added being selected to yield the desired final concentration of test peptide in the medium. The test peptide was mixed instantly with the cell suspension. The incubation was allowed to proceed in a shaking water bath at 37° C. for 4-5 min and was then terminated by addition of ice-cold trichloroacetic acid (10%; 1 ml).
The cells in TCA were then homogenized and sonicated to release cyclic nucleotide. The resulting suspension was centrifuged at 3000 g for 20 min at 4° C. and the resulting precipitate was dissolved in 0.1N NaOH and sonicated for a further 30 minutes, after which the protein content was determined by the method of Cadman, et al., Anal. Biochem., 96, 21-23 (1979). The TCA was removed from the supernatant fraction by extracting four times with 5 ml of water-saturated diethyl ether. After the final extraction, the remaining traces of ether were removed from the supernatant fraction by heating it for 10 min in a 50° C. water bath. After lyophilization of the extracted supernatant fraction, it was reconstituted in 50 mM acetate buffer, ph 6.2, for radioimmunoassay of cyclic nucleotide using the assay kit NEX-133, New England Nuclear, Boston, MA 02113.
A conventional competition radioimmunoassay against radio labelled cyclic GMP was conducted to determine the amount of cyclic GMP induced by each concentration of test peptide. Results are shown in FIG. 1 and in the following table, in which representative subject peptides have been assayed in comparison with thymopentin (designated "TP-5") and a "nonsense" peptide H-ASP-ARG-TYR-LYS-VAL-OH.

[2] = Concentration of Peptide 10^0 μg/ml
[3] = Concentration of Peptide 10^1 μg/ml
[4] = Concentration of Peptide 10^3 μg/ml
[5] = Concentration of Peptide 10^4 μg/ml

## growth hormone
[1]
  Displacement of 125I-TP, in words: no detectable displacement

## adrenocorticotropic hormone (SYSMEHFRWGKPVGKKRRPVKVYPNGAEDESAEAFPLEF; Corticotropin; UniProt P01189 138-176, looked up) [ACTH]
[1]
  Displacement of 125I-TP, in words: no detectable displacement

## CC(=O)N[C@@H](CCCNC(=N)N)C(=O)NC(C)(C)C(=O)N[C@@H](CC(=O)O)C(=O)N[C@H](C(=O)N[C@@H](Cc1ccccc1)C(N)=O)C(C)C [N-α-acetyl-ARG-AIB-ASP-VAL-PHE-NH2, Acetyl-Arginyl-α-Aminoisobutyryl-Aspartyl-Valyl-Phenylalaminamide] (Ac-R[Aib]DVF-NH2)
Intact CEM cell
  Result on the cyclic-GMP assay in words: superior results

## CC(C)[C@H](NC(=O)[C@H](CC(=O)O)NC(=O)[C@H](CCCCN)NC(=O)[C@@H](N)CCCNC(=N)N)C(=O)N[C@@H](Cc1ccccc1)C(=O)O [H-ARG-LYS-ASP-VAL-PHE-OH, Arginyl-Lysyl-Aspartyl-Valyl-Phenylalanine] (H-RKDVF-OH)
[1]
  Displacement of 125I-TP relative to that caused by thymopoietin self-displacement: at least 50%
Intact CEM cell; [2]
  Concentration of c-GMP Produced: 6 picomoles/ml
Intact CEM cell; [3]
  Concentration of c-GMP Produced: 9 picomoles/ml

## N^α -Acetyl-Arginyl-3,4-dehydro-Prolyl-Aspartyl-Valyl-Tyrosineamide
Intact CEM cell
  Result on the cyclic-GMP assay in words: superior results

## corticotropin-releasing factor (SEEPPISLDLTFHLLREVLEMARAEQLAQQAHSNRKLMEII; ends and bridges not checked; UniProt P06850 154-194, looked up) [CRF]
[1]
  Displacement of 125I-TP, in words: no detectable displacement

## β-endorphin (YGGFMTSEKSQTPLVTLFKNAIIKNAYKKGE; Beta-endorphin; UniProt P01189 237-267, looked up)
[1]
  Displacement of 125I-TP, in words: no detectable displacement

## CC(C)[C@H](NC(=O)[C@H](CC(=O)O)NC(=O)[C@H](CCCCN)NC(=O)[C@@H](N)CCCN=C(N)N)C(=O)N[C@@H](Cc1ccc(O)cc1)C(=O)O [TP-5, H--ARG--LYS--ASP--VAL--TYR--OH, reference compound] (H-RKDVY-OH)
Intact CEM cell; [2]
  Concentration of c-GMP Produced: 0 picomoles/ml
Intact CEM cell; [3]
  Concentration of c-GMP Produced: 4.5 picomoles/ml
Intact CEM cell; Concentration of Peptide 10^2 μg/ml
  Concentration of c-GMP Produced: 9 picomoles/ml
Intact CEM cell; [4]
  Concentration of c-GMP Produced: 12 picomoles/ml
Intact CEM cell; [5]
  Concentration of c-GMP Produced: 14 picomoles/ml

## CC(=O)N[C@@H](CCCNC(=N)N)C(=O)N1CCC[C@H]1C(=O)N[C@@H](CC(=O)O)C(=O)N[C@H](C(=O)N[C@@H](Cc1ccccc1)C(=O)O)C(C)C [N-α-acetyl-ARG-PRO-ASP-VAL-PHE-OH, N^α -Acetyl-Arginyl-Prolyl-Aspartyl-Valyl-Phenylaline] (Ac-RPDVF-OH)
Intact CEM cell; [2]
  Concentration of c-GMP Produced: 7 picomoles/ml
Intact CEM cell; [3]
  Concentration of c-GMP Produced: 15 picomoles/ml

## facteur thymique serique [FTS]
[1]
  Displacement of 125I-TP, in words: no detectable displacement

## C[C@H](N)C(=O)NCC(=O)N[C@H]1CSSC[C@@H](C(=O)O)NC(=O)[C@H](CO)NC(=O)[C@H]([C@@H](C)O)NC(=O)[C@H](Cc2ccccc2)NC(=O)[C@H]([C@@H](C)O)NC(=O)[C@H](CCCCN)NC(=O)[C@H](Cc2c[nH]c3ccccc23)NC(=O)[C@H](Cc2ccccc2)NC(=O)[C@H](Cc2ccccc2)NC(=O)[C@H](CC(N)=O)NC(=O)[C@H](CCCCN)NC1=O [somatostatin]
[1]
  Displacement of 125I-TP, in words: no detectable displacement

## CC(C)[C@H](NC(=O)[C@H](CC(=O)O)NC(=O)[C@H](CCCCN)NC(=O)[C@@H](N)CCCNC(=N)N)C(=O)N[C@@H](Cc1c[nH]c2ccccc12)C(N)=O [H-ARG-LYS-ASP-VAL-TRP-NH2, Arginyl-Lysyl-Aspartyl-Valyl-Tryptophan amide] (H-RKDVW-NH2)
[1]
  Displacement of 125I-TP relative to that caused by thymopoietin self-displacement: at least 50%
Intact CEM cell
  Result on the cyclic-GMP assay in words: superior results

## CC(C)[C@H](NC(=O)[C@H](CC(=O)O)NC(=O)[C@H](CCCCN)NC(=O)[C@@H](N)CCCNC(=N)N)C(=O)N[C@@H](Cc1c[nH]c2ccccc12)C(=O)O [H-ARG-LYS-ASP-VAL-TRP-OH, Arginyl-Lysyl-Aspartyl-Valyl-Tryptophan] (H-RKDVW-OH)
[1]
  Displacement of 125I-TP relative to that caused by thymopoietin self-displacement: at least 50%
Intact CEM cell
  Result on the cyclic-GMP assay in words: superior results

## CC(=O)N[C@@H](CCCNC(=N)N)C(=O)N1CCC[C@H]1C(=O)N[C@@H](CC(=O)O)C(=O)N[C@H](C(=O)N[C@@H](Cc1ccccc1)C(N)=O)C(C)C [N-α-acetyl-ARG-PRO-ASP-VAL-PHE-NH2, Acetyl-Arginyl-Prolyl-Aspartyl-Valyl-Phenylalanine-amide] (Ac-RPDVF-NH2)
Intact CEM cell
  Result on the cyclic-GMP assay in words: superior results

## CC(C)[C@H](NC(=O)[C@H](CCCCN)NC(=O)[C@H](Cc1ccc(O)cc1)NC(=O)[C@H](CCCNC(=N)N)NC(=O)[C@@H](N)CC(=O)O)C(=O)O [H--ASP--ARG--TYR--LYS--VAL--OH, H-ASP-ARG-TYR-LYS-VAL-OH, reference compound] (H-DRYKV-OH)
Intact CEM cell; [4]
  Concentration of c-GMP Produced: 0 picomoles/ml
Intact CEM cell; [5]
  Concentration of c-GMP Produced: 0 picomoles/ml
Intact CEM cell; Concentration of Peptide 10^5 μg/ml
  Concentration of c-GMP Produced: 0 picomoles/ml

## ubiquitin
[1]
  Displacement of 125I-TP, in words: no detectable displacement

## CC(C)[C@H](NC(=O)[C@H](CC(=O)O)NC(=O)[C@H](CCCCN)NC(=O)[C@@H](N)CCCNC(=N)N)C(=O)N[C@@H](Cc1c[nH]cn1)C(=O)O [H-ARG-LYS-ASP-VAL-HIS-OH, Arginyl-Lysyl-Aspartyl-Valyl-Histidine] (H-RKDVH-OH)
[1]
  Displacement of 125I-TP relative to that caused by thymopoietin self-displacement: at least 50%
Intact CEM cell; [2]
  Concentration of c-GMP Produced: 0 picomoles/ml
Intact CEM cell; [3]
  Concentration of c-GMP Produced: 9 picomoles/ml

## CC(C)[C@H](NC(=O)[C@H](CC(=O)O)NC(=O)[C@@H]1CCCN1C(=O)[C@@H](N)CCCNC(=N)N)C(=O)N[C@@H](Cc1ccccc1)C(=O)O [H--ARG--PRO--ASP--VAL--PHE--OH, Arginyl-Prolyl-Aspartyl-Valyl-Phenylalanine] (H-RPDVF-OH)
[1]
  Displacement of 125I-TP relative to that caused by thymopoietin self-displacement: at least 50%
Intact CEM cell; [2]
  Concentration of c-GMP Produced: 0 picomoles/ml
Intact CEM cell; [3]
  Concentration of c-GMP Produced: 12 picomoles/ml
